Assays:
[1] = target: T1, human recombinant VNN1 enzyme (Homo sapiens, UniProt O95497); test: Inhibitory activity against human recombinant VNN1 enzyme in vitro with fluorescent probe PA-AFC; assay type: biochemical; conditions: human recombinant VNN1 30 ng/ml, probe PA-AFC 20 μM, 37°C, 30 min + 30 min
T1 sequence (O95497 22-513): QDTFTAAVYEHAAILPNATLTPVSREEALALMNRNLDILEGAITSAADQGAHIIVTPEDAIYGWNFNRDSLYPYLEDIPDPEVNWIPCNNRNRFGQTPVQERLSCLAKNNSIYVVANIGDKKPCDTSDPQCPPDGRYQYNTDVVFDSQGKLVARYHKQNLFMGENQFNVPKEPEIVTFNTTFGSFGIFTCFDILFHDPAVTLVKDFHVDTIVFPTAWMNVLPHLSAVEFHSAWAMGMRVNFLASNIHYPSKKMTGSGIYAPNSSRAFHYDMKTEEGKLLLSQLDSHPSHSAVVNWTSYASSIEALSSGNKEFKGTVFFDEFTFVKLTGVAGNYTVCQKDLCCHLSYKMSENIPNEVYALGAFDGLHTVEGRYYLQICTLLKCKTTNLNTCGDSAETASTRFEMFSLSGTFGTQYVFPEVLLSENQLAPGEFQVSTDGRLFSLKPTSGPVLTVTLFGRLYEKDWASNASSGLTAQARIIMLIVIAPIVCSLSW
Protocol: This study was used human recombinant VNN1 enzyme and fluorescent probe PA-AFC to determine the IC50 value of inhibitors.
Dilute the lead compound and each inhibitor to be tested with buffer to, for example, 400, 200, 100, 50, 25, 12.50, 6.25, 3.13, and 1.56 μM, 781 nM, 391 nM The gradient concentration of the solution. Prepare the human recombinant VNN1 enzyme solution at a concentration of 30 ng/ml. Prepare the fluorescent probe PA-AFC solution with a concentration of 20 μM.
Add 50 μl of gradient concentration of the inhibitor to be tested to each well of the black 96-well plate, and then continue to add 50 μl of the newly prepared human recombinant VNN1 enzyme solution to each well. Among them, the control group and the blank group were replaced with the same volume of buffer. After the solution is mixed, place the black 96-well plate on a shaker at 37°C for 30 min. Continue to add 100 μl of the prepared fluorescent probe solution to each well of the black 96-well plate. After mixing, place the black 96-well plate on a shaker at 37°C and incubate for 30 min. Take the black 96-well plate out of the shaker and place it in a POLARstar Omega microplate reader. Use a 420 nm filter for the excitation light and a 510 nm filter for the emission light. Record the fluorescence intensity data at 510 nm. Through GraphpadPrism mapping, the IC50 value of each inhibitor to be tested was obtained.

Vanin-1 enzyme [2] = target: T2, Vanin-1 enzyme (Homo sapiens, UniProt O95497); test: Inhibition of Vanin-1 enzyme at the cellular level in ES-2-Fluc cells with bioluminescent probe PA-AL; assay type: cell-based; conditions: 30 min incubation with inhibitor, probe PA-AL 20 μM
T2 construct: endogenous in cells; host or cells: ES-2-Fluc (human ovarian cancer cells expressing firefly luciferase)
T2 sequence (O95497 22-513): T1 sequence (O95497 22-513)
Protocol: This study explores the inhibition of Vanin-1 enzyme at the cellular level using firefly luciferase labeled human ovarian cancer cells (ES-2-Fluc) and the bioluminescent probe PA-AL.
Take a black 96-well plate with a transparent bottom, dilute the cells to a cell suspension with a concentration of 4 × 10^5 cells/ml, add 100 μl to each well to reach about 40,000 cells in each well, and incubate at 37°C for 12 h. Dilute the lead compound and each inhibitor to be tested to the final concentration of 200, 100, 50, 25, 12.50, 6.25, 3.13, 1.56, and 0.78 μM, and add 100 μl to each well. After mixing, transfer to a shaker at 37°C and incubate the cells with the inhibitor for 30 min. Prepare bioluminescent probe PA-AL solution with a concentration of 20 μM. Immediately after adding, put it into in vivo imaging for bioluminescence imaging. The bioluminescence intensity value of each hole was analyzed by the software of the living body imager, and the exposure time was 1 min. Graphpad Prism software is used to draw the IC50 value of each inhibitor to be tested.

[3] = system: TNBS-induced mouse colitis model; test: TNBS-induced mouse colitis model; assay type: in vivo, C57BL/6J mice; conditions: TNBS colitis mice; lead compound 25 mg/kg, compound a 50 mg/kg once a day, 8 days; TNBS model group 10.0 ± 1.63
Protocol: The dose of TNBS used in this experiment is 2.0 mg/50% alcohol enema, each with a volume of 100 μl. The preparation method is 40 μl of 5% TNBS (w/v) aqueous solution, 50 μl of absolute ethanol, and 10 μl of distilled water. well mixed.
The study bred C57BL/6J mice adaptively with ordinary diet for 1 week, in an ordinary clean environment, normal light and free drinking water. The mice were randomly divided into 3 groups and numbered, fasted without water for 24 h before modeling. After weighing the mouse, use isoflurane anesthesia, insert a rubber hose with a diameter of about 0.2–0.3 cm into the mouse 3.5 cm from the anus, and slowly push 100 μl of the 2.0 mg TNBS/50% alcohol mixture solution through the hose Enter the colon, slowly pull out the plastic tube after the administration, pinch the anus with your hand, and invert it for 1 min, so that the model agent can fully penetrate the intestinal cavity of the mouse. Then put them back into the breeding cage to keep lying down, wait for the mice to wake up naturally, and create a model together. The mice in the control group were given 200 μl of lead compound solution (25 mg/kg) once a day, the mice in the experimental group were given 200 μl of compound 1c solution (50 mg/kg) once a day, and the mice in the model group were given physiological salt once a day 200 μl of aqueous solution. […]

vanin-1 enzyme [4] = target: T3, vanin-1 enzyme (Mus musculus, UniProt Q9Z0K8); test: Inhibition of vanin-1 in transgenic mice in vivo, bioluminescence imaging with probe PA-AL; parameters: species or system FVB-luc + mice; conditions: gavage, lead compound 25 mg/kg, compound a 50 mg/kg, PA-AL i.p. 1.5 h later
T3 construct: from tissue; host or cells: whole living FVB-luc+ transgenic mice
T3 sequence (Q9Z0K8 24-512): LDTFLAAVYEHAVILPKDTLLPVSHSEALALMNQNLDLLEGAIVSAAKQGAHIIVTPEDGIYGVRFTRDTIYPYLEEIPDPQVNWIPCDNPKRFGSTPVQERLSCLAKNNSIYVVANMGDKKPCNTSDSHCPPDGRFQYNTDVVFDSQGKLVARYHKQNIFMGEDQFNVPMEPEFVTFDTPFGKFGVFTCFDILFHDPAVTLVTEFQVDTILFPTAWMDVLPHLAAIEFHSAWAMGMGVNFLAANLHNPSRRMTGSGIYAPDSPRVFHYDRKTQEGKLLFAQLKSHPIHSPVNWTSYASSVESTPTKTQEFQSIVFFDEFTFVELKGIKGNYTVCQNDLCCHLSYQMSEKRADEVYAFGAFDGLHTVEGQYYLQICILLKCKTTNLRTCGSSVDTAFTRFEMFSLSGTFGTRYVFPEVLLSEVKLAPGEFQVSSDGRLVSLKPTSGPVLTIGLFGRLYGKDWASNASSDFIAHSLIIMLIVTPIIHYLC
Protocol: We divided FVB-luc + mice into three groups: • (1) Control group: gavage lead compound, the dose is 25 mg/kg, the gavage volume is 200 μl; • (2) Experimental group: gavage compound a, the dose is 50 mg/kg, the gavage volume is 200 μl; • (3) Blank group: Administer normal saline, the volume of intragastric administration is 200 μl.
After intragastric administration, mice were fed routinely for 1.5 h, and then mice in each group were anesthetized with 4% chloral hydrate solution and injected intraperitoneally with physiological saline solution of bioluminescent probe PA-AL (1 mM, 200 μl). In 55 min, the bioluminescence imaging of the whole body of each group of mice was measured every 5 min, and then the bioluminescence intensity was obtained by analyzing the images with the software of the in vivo imager.

vanin-1 = system: vanin-1; parameters: method as in Jansen et al., 2013; conditions: ref Jansen et al., 2013; cited from earlier work

Row | SMILES | melting point [°C] | IC50 [1] [µM] | IC50 (Vanin-1 enzyme [2]) [µM] | DAI score [3] | bioluminescence intensity at the peak relative to the blank group (vanin-1 enzyme [4]; 30 min after probe injection) | bioluminescence intensity of transgenic mice at the peak (vanin-1 enzyme [4]; about 30 min after probe injection) | IC50 (vanin-1) [µM]
1 | CC(C)(CO)C(O)C(=O)NCCC(=O)Nc1ccc2c(C(F)(F)F)cc(=O)oc2c1 (centres unmarked) | 92.4 to 93.6 | – | – | – | – | – | –
2 | O=C(c1ccc(NCc2cccnc2)cn1)N1CCC2(CCOCC2)C1 [e, (5-((pyridin-3-ylmethyl)amino)pyridin-2-yl)(8-oxa-2-azaspiro[4.5]decan-2-yl)methanone] | 176.5 to 177.2 | 43.7 ± 1.07 | 35.8 ± 2.15 | – | – | – | –
3 | O=C(c1ccc(NCc2cccnc2)cn1)N1CC2(CCOCC2)C1 [f, (5-((pyridin-3-ylmethyl)amino)pyridin-2-yl)(7-oxa-2-azaspiro[3.5]nonan-2-yl)methanone] | 202 to 202.3 | 46.2 ± 1.27 | 22 ± 2.66 | – | – | – | –
4 | O=C(c1ccc(NCc2cnccn2)cn1)N1CC2(CCOCC2)C1 [h, (5-((pyrazin-2-ylmethyl)amino)pyridin-2-yl)(7-oxa-2-azaspiro[3.5]nonan-2-yl)methanone] | 104.6 to 105 | 84.6 ± 2.5 | 59.6 ± 5.27 | – | – | – | –
5 | COc1cc(C(=O)N2CC3(CCOCC3)C2)ccc1NCc1cccnc1 [j, (3-methoxy-4-((pyridin-3-ylmethyl)amino)phenyl)(7-oxa-2-azaspiro[3.5]nonan-2-yl)methanone] | 136.4 to 136.9 | 138.3 ± 0.68 | 80.6 ± 6.21 | – | – | – | –
6 | COc1cc(C(=O)N2CCC3(CCOCC3)C2)ccc1NCc1cccnc1 [i, (3-methoxy-4-((pyridin-3-ylmethyl)amino)phenyl)(8-oxa-2-azaspiro[4.5]decan-2-yl)methanone] | 128.2 to 129.6 | 115 ± 13 | 93.7 ± 8.08 | – | – | – | –
7 | O=C(c1ccc(NCc2cnccn2)cc1)N1CCC2(CCOCC2)C1 [c, (4-((pyrazin-2-ylmethyl)amino)phenyl)(8-oxa-2-azaspiro[4.5]decan-2-yl)methanone] | 173.4 to 173.8 | 30.33 ± 0.11 | 16.5 ± 1.92 | – | – | – | –
8 | O=C(c1ccc(NCc2cnccn2)cc1)N1CC2(CCOCC2)C1 [d, (4-((pyrazin-2-ylmethyl)amino)phenyl)(7-oxa-2-azaspiro[3.5]nonan-2-yl)methanone] | 191.6 to 191.9 | 28.5 ± 0.35 | 15.3 ± 0.75 | – | – | – | –
9 | O=C(c1ccc(NCc2cnccn2)cn1)N1CCC2(CCOCC2)C1 [g, (5-((pyrazin-2-ylmethyl)amino)pyridin-2-yl)(8-oxa-2-azaspiro[4.5]decan-2-yl)methanone] | 123.6 to 124.1 | 51.5 ± 1.65 | 39.8 ± 0.91 | – | – | – | –
10 | O=C(c1ccc(NCc2cccnc2)cc1)N1CCC2(CCOCC2)C1 [a, (4-((pyridin-3-ylmethyl)amino)phenyl)(8-oxa-2-azaspiro[4.5]decan-2-yl)methanone] | 113.2 to 114.7 | 20.2 ± 1.32 | 9.08 ± 0.57 | 6.7 ± 0.95 | about one-half | significantly reduced | –
11 | CC(C)(CO)[C@@H](O)C(=O)NCCC(=O)Cc1ccccc1 [RR6] | – | – | – | – | – | – | 0.54
12 | O=C(c1ccc(NCc2cccnc2)cc1)N1CC2(CCOCC2)C1 [b, (4-((pyridin-3-ylmethyl)amino)phenyl)(7-oxa-2-azaspiro[3.5]nonan-2-yl)methanone] | 126.1 to 126.5 | 26.2 ± 0.56 | 12.3 ± 1.28 | – | – | – | –
